Assay results reported in US20110195924A1, “Methods of Inhibiting the Interaction Between S100P and the Receptor for Advanced Glycation End-Products” (priority 2008, published 2011).

How the values were obtained:
PC3 prostate cells = assay: PC3 prostate cell proliferation; type: cell-based; conditions: different concentrations; 24, 48, 72 hours
Procedure: PC3 prostate cells were cultured for up to three days in the presence of different concentrations of cromolyn, and cell proliferation was analyzed at 24, 48, and 72 hours. *, P<0.05.

NFκB promoter activity [1] = assay: NFκB luciferase activity in vivo, orthotopic BxPC-3 tumors; set-up: species or system mice
Procedure: FIGS. 3A, 3B, and 3C show the effect of cromolyn on S100P stimulated NFκB promoter activity in pancreatic cancer cells in vitro and in vivo. Panc-1 and BxPC-3 pancreatic cancer cell lines stably expressing an NFκB luciferase reporter were examined for the effects of S100P and cromolyn. […] Means and 95% confidence intervals are shown for three independent experiments performed in triplicate. *, P=0.022, †, P<0.001, and P<0.001 versus control; #, P=0.005 versus 100 nM S100P alone. […] Means and 95% confidence intervals are shown for three independent experiments performed in triplicate. *, P=0.003, †, P<0.001 versus control. […] After 1 week, tumor growth was assessed and NFκB activity was analyzed using an IVIS system (Xenogen Corp., Alameda, Calif.) after injecting mice with D-luciferin (150 mg per kg body weight) (0 time point). The mice were treated with cromolyn (5 mg per kg body weight by intraperitoneal injection), and NFκB luciferase activity was analyzed again at 24 and 48 hours. *, P=0.005 versus control. Means and 95% confidence intervals are shown for two independent experiments (n=4 mice per group). Two-tailed two-sample (unpaired for in vitro and paired for in vivo studies) Student's t-tests were used to determine P values. To measure NFκB promoter activity in vivo, BxPC-3 cells (50,000/50 μL) stably expressing a Lenti-NFkB-luc reporter were transplanted orthotopically into the pancreas of 4-week-old male CB17 scid mice (n=4 mice per experiment). After 1 week mice were injected with D-luciferin (150 mg per kg body weight, i.p.), and basal NFκB activity was determined using the IVIS system. Subsequently, mice were injected with cromolyn (5 mg per kg body weight, i.p.), and NFκB luciferase activity was re-analyzed after 24 and 48 hours. These experiments were performed three times. To determine whether cromolyn treatment could also reduce NFκB activity in vivo, NFκB activity of BxPC-3 cells stably expressing an NFκB luciferase reporter construct that had been transplanted orthotopically into the pancreas of […] (n=4) was examined. After 1 week, NFκB luciferase activity was determined before (0 time point) and at 24 and 48 hours after a single dose of cromolyn (5 mg per kg body weight by intraperitoneal [i.p.] injection). Cromolyn administration reduced basal NFκB activity by at least 80% 24 hours after injection (0 h, mean=9.9×10^6 versus 24 h, mean=1.3×10^6 photons/sec, difference=8.6×10^6 photons/sec, 95% CI=3.1×10^6 to 1.4×10^7 photons/sec; P=0.005, FIG. 3C).

NFκB promoter activity [2] = assay: NFκB luciferase reporter assay in Panc-1 cells; type: cell-based
Procedure: FIGS. 3A, 3B, and 3C show the effect of cromolyn on S100P stimulated NFκB promoter activity in pancreatic cancer cells in vitro and in vivo. Panc-1 and BxPC-3 pancreatic cancer cell lines stably expressing an NFκB luciferase reporter were examined for the effects of S100P and cromolyn. […] Means and 95% confidence intervals are shown for three independent experiments performed in triplicate. *, P=0.022, †, P<0.001, and P<0.001 versus control; #, P=0.005 versus 100 nM S100P alone. […] Means and 95% confidence intervals are shown for three independent experiments performed in triplicate. *, P=0.003, †, P<0.001 versus control. […] After 1 week, tumor growth was assessed and NFκB activity was analyzed using an IVIS system (Xenogen Corp., Alameda, Calif.) after injecting mice with D-luciferin (150 mg per kg body weight) (0 time point). The mice were treated with cromolyn (5 mg per kg body weight by intraperitoneal injection), and NFκB luciferase activity was analyzed again at 24 and 48 hours. *, P=0.005 versus control. Means and 95% confidence intervals are shown for two independent experiments (n=4 mice per group). Two-tailed two-sample (unpaired for in vitro and paired for in vivo studies) Student's t-tests were used to determine P values.
To study pancreatic cancer cell NFκB activity, a lentivirus NFκB luciferase reporter gene construct was developed. The NFκB luciferase reporter gene was excised and isolated from the pNF-κB-Luc Vector (Clonetec, Mountain View, Calif.) and cloned into the lentiviral vector FG9 (Gift from Dr. Xiao-Feng Qin, Dept. of Immunology, M.D. Anderson Cancer Center replacing the CMV/LTR and UBiC promoters, to form Lenti-NFκB-Luc. Lentiviral NFκB vector were co-transfected with packaging constructs pRSVREV, pMDLg/pRRE, and the VSV-G expression plasmid pHCMVG, and lentivirus was produced in 293T cells by the calcium transfection method, as previously described in Qin, et al., Inhibiting HIV-1 infection in human T cells by lentiviral-mediated delivery of small interfering RNA against CCR5; Proc. Natl. Acad. Sci. U.S.A. 2003 Jan. 7; 100(1):183-8. […] Functional validation of NFκB reporter activity was conducted in vitro using TNF-α (20 ng/mL, Sigma, St. Louis, Mo.) as a positive control.
BxPC-3 and Panc-1 cells stably expressing a Lenti-NFkB-luc reporter construct were treated with S100P, cromolyn, or the combination for 5 hours. D-luciferin (150 μg/mL) was added to the cells, and luciferase activity was measured using an IVIS bioluminescence system (Xenogen Co. Alameda, Calif.). Each experiment was conducted three times in triplicate.

[3] = S100P 100 nM + cromolyn 100 μM, 5 hours

For `O=C(O)c1cc(=O)c2c(OCC(O)COc3cccc4oc(C(=O)O)cc(=O)c34)cccc2o1` [cromolyn, disodium 1,3-bis[(2′-carboxylatochromon-5′-yl)oxy]-2-hydroxypropane], the “growth of PC3 cells” value (PC3 prostate cells) was “reduced growth”, the “NFκB luciferase activity, difference 0 h versus 24 h” value (NFκB promoter activity [1]; cromolyn 5 mg per kg i.p., 24 h) was 8.6×10^6 photons/sec and the “NFκB luciferase activity, mean” value (NFκB promoter activity [1]; cromolyn 5 mg per kg i.p., 24 h, 0 h mean 9.9×10^6) was 1.3×10^6 photons/sec. For the same compound, the NFκB activity (NFκB promoter activity [1]; cromolyn 5 mg per kg i.p., 48 hours after injection) was “returned to control levels”, the “reduction of basal NFκB activity” value (NFκB promoter activity [1]; single dose cromolyn 5 mg per kg i.p., 24 hours after injection) was “at least 80%” and the “NFκB promoter activity, difference versus 100 nM S100P alone” value (NFκB promoter activity [2]; [3]) was 7100 photons/sec. For the same compound, the “NFκB promoter activity, mean” value (NFκB promoter activity [2]; [3]) was 7360 photons/sec and the “basal NFκB activity” value (NFκB promoter activity [2]; cromolyn alone) was “no effect”.
